Reference: ChEMBL document CHEMBL6092168, “Identification of novel indolinone derivatives as CTSC inhibitors to treat inflammatory bowel disease by modulating inflammatory factors” (Eur J Med Chem, 2024)
Calls of active or inactive are those of the source. The rule behind the calls is not given here.

Columns and labels:
[1] = target: Dipeptidyl peptidase 1 (Homo sapiens, UniProt P53634); experiment: Inhibition of human recombinant Cathepsin C using Gly-Phe-AFC as substrate preincubated for 3 hrs followed by substrate addition and measured after 1 hr by fluorescence based multifunctional microplate reader analysis
Chain of Dipeptidyl peptidase 1 (P53634 25-134 limits assumed): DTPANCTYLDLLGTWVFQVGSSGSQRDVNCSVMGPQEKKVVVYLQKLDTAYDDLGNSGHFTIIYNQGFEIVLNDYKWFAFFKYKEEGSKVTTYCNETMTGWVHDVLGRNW
Chain of Dipeptidyl peptidase 1 (P53634 231-394 limits assumed): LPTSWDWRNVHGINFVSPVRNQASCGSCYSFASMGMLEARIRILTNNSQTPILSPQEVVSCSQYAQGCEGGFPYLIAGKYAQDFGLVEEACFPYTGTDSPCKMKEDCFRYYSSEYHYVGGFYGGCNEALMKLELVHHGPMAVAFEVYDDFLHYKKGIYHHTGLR
Chain of Dipeptidyl peptidase 1 (P53634 395-463 limits assumed): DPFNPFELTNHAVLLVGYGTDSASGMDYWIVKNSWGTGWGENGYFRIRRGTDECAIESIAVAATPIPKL

[2] = system: RAW264.7; experiment: Anti-inflammatory activity in mouse RAW264.7 cells assessed as inhibition of LPS-induced NO production preincubated for 1 hr followed by LPS addition and measured after 24 hrs by Griess reagent based assay; format: functional, cell-based
[3] = system: RAW264.7; experiment: Anti-inflammatory activity in mouse RAW264.7 cells assessed as inhibition of LPS-induced IL-1beta production at 5 uM preincubated for 1 hr followed by LPS addition and measured after 24 hrs by ELISA relative to control; format: functional
[4] = system: RAW264.7; experiment: Anti-inflammatory activity in mouse RAW264.7 cells assessed as inhibition of LPS-induced TNF-alpha production at 5 uM preincubated for 1 hr followed by LPS addition and measured after 24 hrs by ELISA relative to control; format: functional

Row | Structure (SMILES) | IC50 [1] | IC50 [2] | Activity ([3]; time 25.0 hrs) | Activity ([4]; time 25.0 hrs) | Activity ([3]; time 25 hrs) | Activity ([4]; time 25 hrs)
1 | O=C1Nc2c(cccc2-c2ccccc2)/C1=C/c1ccnc2ccccc12 | > 1000 nM | > 50000 nM | inactive | inactive | – | –
2 | Nc1n[nH]c2ccc(-c3cccc4c3NC(=O)/C4=C\c3ccnc4ccccc34)cc12 | 398 nM | 15600 nM | – | – | 59.3% | 37.8%
3 | CCc1ccc(NC(=O)c2cccc(-c3ccc(CN4CCOCC4)cc3)c2)cc1 | > 1000 nM | > 50000 nM | inactive | inactive | – | –
4 | O=C(Nc1cncc2ccccc12)c1cccc(-c2ccc(CN3CCOCC3)cc2)c1 | 250 nM | 9700 nM | – | – | 65.6% | 62.5%
5 | CCc1cccc(NC(=O)c2cccc(-c3ccc(CN4CCOCC4)cc3)c2)c1 | > 1000 nM | > 50000 nM | inactive | inactive | – | –
6 | O=C1Nc2c(cccc2-c2ccc(CN3CCOCC3)cc2)/C1=C/c1ccnc2ccccc12 | 106 nM | 4400 nM | – | – | 88.3% | 72.2%
7 | Nc1ccc(NC(=O)c2cccc(-c3ccc(CN4CCOCC4)cc3)c2)cc1 | > 1000 nM | > 50000 nM | inactive | inactive | – | –
8 | CC(C)c1ccc(-c2cccc3c2NC(=O)/C3=C\c2ccnc3ccccc23)cc1 | > 1000 nM | > 50000 nM | inactive | inactive | – | –
9 | NC(=O)c1cccc(NC(=O)c2cccc(-c3ccc(CN4CCOCC4)cc3)c2)c1 | 360 nM | 16100 nM | – | – | 35.6% | 41.9%
10 | O=C(Nc1cccc(F)c1)c1cccc(-c2ccc(CN3CCOCC3)cc2)c1 | > 1000 nM | > 50000 nM | inactive | inactive | – | –
11 | O=C1Nc2c(cccc2-c2ccc(N3CCOCC3)cc2)/C1=C/c1ccnc2ccccc12 | 537 nM | 11300 nM | inactive | inactive | – | –
12 | CC(=O)Nc1ccccc1NC(=O)c1cccc(-c2ccc(CN3CCOCC3)cc2)c1 | 900 nM | > 50000 nM | inactive | inactive | – | –
13 | O=C(Nc1ccc2ccccc2c1)c1cccc(-c2ccc(CN3CCOCC3)cc2)n1 | 302 nM | 2900 nM | – | – | 69.3% | 57.4%
14 | O=C(Nc1cncc2ccccc12)c1cccc(-c2ccc(CN3CCOCC3)cc2)n1 | 251 nM | > 50000 nM | inactive | inactive | – | –
15 | O=C(Nc1ccc(F)cc1)c1cccc(-c2ccc(CN3CCOCC3)cc2)c1 | > 1000 nM | > 50000 nM | inactive | inactive | – | –
16 | Cc1cccc(NC(=O)c2cccc(-c3ccc(CN4CCOCC4)cc3)c2)c1 | > 1000 nM | > 50000 nM | inactive | inactive | – | –
17 | O=C1Nc2c(cccc2-c2ccc(Cl)cc2)/C1=C/c1ccnc2ccccc12 | > 1000 nM | > 50000 nM | inactive | inactive | – | –
18 | O=C(Nc1ccc(O)cc1)c1cccc(-c2ccc(CN3CCOCC3)cc2)c1 | 237 nM | 15700 nM | – | – | 38.6% | 40.8%
19 | O=C(Nc1ccc(Cl)cc1)c1cccc(-c2ccc(CN3CCOCC3)cc2)c1 | 575 nM | > 50000 nM | inactive | inactive | – | –
20 | O=C1Nc2c(cccc2-c2ccc3cc[nH]c3c2)/C1=C/c1ccnc2ccccc12 | – | 9800 nM | – | – | 60.2% | 39.4%
21 | CC(=O)c1ccc(NC(=O)c2cccc(-c3ccc(CN4CCOCC4)cc3)c2)cc1 | > 1000 nM | > 50000 nM | inactive | inactive | – | –
22 | Nc1ccccc1NC(=O)c1cccc(-c2ccc(CN3CCOCC3)cc2)c1 | > 1000 nM | > 50000 nM | inactive | inactive | – | –
23 | Nc1c(C(=O)Nc2ccnc3ccccc23)cccc1-c1ccc(CN2CCOCC2)cc1 | 145 nM | 6400 nM | – | – | 80.9% | 75.2%
24 | O=C(Nc1cccc2ccccc12)c1cccc(-c2ccc(CN3CCOCC3)cc2)n1 | 253 nM | 10000 nM | – | – | 68.5% | 59.6%
25 | Nc1c(C(=O)Nc2nccc3ccccc23)cccc1-c1ccc(CN2CCOCC2)cc1 | 324 nM | 8300 nM | – | – | 44.2% | 33.3%
26 | CC(=O)Nc1ccc(-c2cccc3c2NC(=O)/C3=C\c2ccnc3ccccc23)cc1 | 303 nM | 16200 nM | inactive | inactive | – | –
27 | NC(=O)c1ccc(-c2cccc3c2NC(=O)/C3=C\c2ccnc3ccccc23)cc1 | 290 nM | 16200 nM | inactive | inactive | – | –
28 | O=C(Nc1cccc(C(F)(F)F)c1)c1cccc(-c2ccc(CN3CCOCC3)cc2)c1 | > 1000 nM | > 50000 nM | inactive | inactive | – | –
29 | CNC(=O)c1ccccc1NC(=O)c1cccc(-c2ccc(CN3CCOCC3)cc2)c1 | > 1000 nM | > 50000 nM | inactive | inactive | – | –
30 | O=C(Nc1cccc(Cl)c1)c1cccc(-c2ccc(CN3CCOCC3)cc2)c1 | 377 nM | > 50000 nM | – | – | 40.2% | 35.5%

More lines, main results first:

Row | IC50 [1] | IC50 [2] | Structure (SMILES) | Activity ([3]; time 25.0 hrs) | Activity ([4]; time 25.0 hrs) | Activity ([3]; time 25 hrs) | Activity ([4]; time 25 hrs)
31 | > 1000 nM | > 50000 nM | CC(C)c1cccc(NC(=O)c2cccc(-c3ccc(CN4CCOCC4)cc3)c2)c1 | inactive | inactive | – | –
32 | 293 nM | 16800 nM | CC(=O)c1ccc(-c2cccc3c2NC(=O)/C3=C\c2ccnc3ccccc23)cc1 | inactive | inactive | – | –
33 | 660 nM | 14500 nM | CN(C)Cc1ccc(-c2cccc3c2NC(=O)/C3=C\c2ccnc3ccccc23)cc1 | inactive | inactive | – | –
34 | > 1000 nM | > 50000 nM | O=C(Nc1ccccc1)c1cccc(-c2ccc(CN3CCOCC3)cc2)c1 | inactive | inactive | – | –
35 | > 1000 nM | > 50000 nM | O=C(Nc1ccc(C(F)(F)F)cc1)c1cccc(-c2ccc(CN3CCOCC3)cc2)c1 | inactive | inactive | – | –
36 | > 1000 nM | > 50000 nM | O=C1Nc2c(cccc2-c2ccc(OC(F)(F)F)cc2)/C1=C/c1ccnc2ccccc12 | inactive | inactive | – | –
37 | 190 nM | 9800 nM | O=C1Nc2c(cccc2-c2ccc3[nH]ncc3c2)/C1=C/c1ccnc2ccccc12 | – | – | 62% | 41.3%
38 | > 1000 nM | > 50000 nM | NC(=O)c1ccc(NC(=O)c2cccc(-c3ccc(CN4CCOCC4)cc3)c2)cc1 | inactive | inactive | – | –
39 | > 1000 nM | > 50000 nM | O=C(Nc1ccccc1F)c1cccc(-c2ccc(CN3CCOCC3)cc2)c1 | inactive | inactive | – | –
40 | 265 nM | 9700 nM | O=C(Nc1cccc(O)c1)c1cccc(-c2ccc(CN3CCOCC3)cc2)c1 | – | – | 55.7% | 62.2%
41 | 486 nM | > 50000 nM | COc1cccc(NC(=O)c2cccc(-c3ccc(CN4CCOCC4)cc3)c2)c1 | – | – | 25.5% | 20.4%
42 | – | 14500 nM | NCc1ccc(-c2cccc3c2NC(=O)/C3=C\c2ccnc3ccccc23)cc1 | inactive | inactive | – | –
43 | > 1000 nM | 15100 nM | CN(C)c1ccc(-c2cccc3c2NC(=O)/C3=C\c2ccnc3ccccc23)cc1 | inactive | inactive | – | –
44 | 263 nM | 8200 nM | O=C(Nc1cccc2ccccc12)c1cccc(-c2ccc(CN3CCOCC3)cc2)c1 | – | – | 63.2% | 54.3%
45 | 244 nM | > 50000 nM | O=C(Nc1nccc2ccccc12)c1cccc(-c2ccc(CN3CCOCC3)cc2)n1 | inactive | inactive | – | –
46 | > 1000 nM | > 50000 nM | O=C1Nc2c(cccc2-c2ccc(C(F)(F)F)cc2)/C1=C/c1ccnc2ccccc12 | inactive | inactive | – | –
47 | > 1000 nM | > 50000 nM | CC(C)c1ccccc1NC(=O)c1cccc(-c2ccc(CN3CCOCC3)cc2)c1 | inactive | inactive | – | –
48 | 222 nM | 5300 nM | Nc1c(C(=O)Nc2cncc3ccccc23)cccc1-c1ccc(CN2CCOCC2)cc1 | – | – | 62.3% | 60.8%
49 | > 1000 nM | > 50000 nM | Cc1ccccc1NC(=O)c1cccc(-c2ccc(CN3CCOCC3)cc2)c1 | inactive | inactive | – | –
50 | > 1000 nM | > 50000 nM | COc1ccc(-c2cccc3c2NC(=O)/C3=C\c2ccnc3ccccc23)cc1 | inactive | inactive | – | –
51 | > 1000 nM | 18700 nM | Cc1ccc(-c2cccc3c2NC(=O)/C3=C\c2ccnc3ccccc23)cc1 | inactive | inactive | – | –
52 | – | 6800 nM | O=C1Nc2c(cccc2-c2ccc(C(=O)NC3CCOCC3)cc2)/C1=C/c1ccnc2ccccc12 | – | – | 88.1% | 71.9%
